Data reported in PubChem BioAssay (NCI).
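Interpolation was linear, between the two tested concentrations surrounding the appropriate level; five concentrations were tested over 48 hours in 96-well plates. GI50 is the concentration that inhibits growth by half. Definition used: TGI = concentration required for complete inhibition of growth.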

Assays:
Assay in all cases: NCI-60 cell line screen, 48 h
COLO 205 colon = tested on: COLO 205 colon
OVCAR-3 ovarian = tested on: OVCAR-3 ovarian
NCI-H23 lung = tested on: NCI-H23 lung
PC-3 prostate = tested on: PC-3 prostate
A498 renal = tested on: A498 renal
SNB-75 CNS = tested on: SNB-75 CNS
HOP-92 NSCLC = tested on: HOP-92 NSCLC
SK-OV-3 ovarian = tested on: SK-OV-3 ovarian
MDA-MB-231 breast = tested on: MDA-MB-231 breast
SF-295 CNS = tested on: SF-295 CNS
HOP-62 NSCLC = tested on: HOP-62 NSCLC
CCRF-CEM leukemia = tested on: CCRF-CEM leukemia
OVCAR-5 ovarian = tested on: OVCAR-5 ovarian
HS 578T breast = tested on: HS 578T breast
NCI-H460 lung = tested on: NCI-H460 lung
NCI/ADR-RES ovarian = tested on: NCI/ADR-RES ovarian
SF-268 CNS = tested on: SF-268 CNS
CAKI-1 renal = tested on: CAKI-1 renal
RXF 393 renal = tested on: RXF 393 renal
SN12C renal = tested on: SN12C renal
SW-620 colon = tested on: SW-620 colon
UACC-257 melanoma = tested on: UACC-257 melanoma
SK-MEL-2 melanoma = tested on: SK-MEL-2 melanoma
786-0 renal = tested on: 786-0 renal
MOLT-4 leukemia = tested on: MOLT-4 leukemia
DU-145 prostate = tested on: DU-145 prostate
MCF7 breast = tested on: MCF7 breast
TK-10 renal = tested on: TK-10 renal
MALME-3M melanoma = tested on: MALME-3M melanoma
OVCAR-8 ovarian = tested on: OVCAR-8 ovarian
HL-60(TB) leukemia = tested on: HL-60(TB) leukemia
OVCAR-4 ovarian = tested on: OVCAR-4 ovarian
IGROV1 ovarian = tested on: IGROV1 ovarian
K-562 leukemia = tested on: K-562 leukemia
A549 NSCLC = tested on: A549 NSCLC
NCI-H226 lung = tested on: NCI-H226 lung

SMILES: COc1ccc(C(=O)c2cc(OC)c(OC)c(OC)c2)cc1/C=C/C(=O)c1ccc2c(c1)OCO2
- GI50 (COLO 205 colon): 3.51 µM
- TGI (COLO 205 colon): > 100 µM
- GI50 (OVCAR-3 ovarian): 1.96 µM
- TGI (OVCAR-3 ovarian): 7.24 µM
- GI50 (NCI-H23 lung): 2.67 µM
- TGI (NCI-H23 lung): 8.22 µM
- GI50 (PC-3 prostate): 4.1 µM
- TGI (PC-3 prostate): > 100 µM
- GI50 (A498 renal): 2.43 µM
- TGI (A498 renal): 16.7 µM
- GI50 (SNB-75 CNS): 3.11 µM
- TGI (SNB-75 CNS): 15.6 µM
- GI50 (HOP-92 NSCLC): 12 µM
- TGI (HOP-92 NSCLC): 35.4 µM
- GI50 (SK-OV-3 ovarian): 5.7 µM
- TGI (SK-OV-3 ovarian): 41.1 µM
- GI50 (MDA-MB-231 breast): 2.35 µM
- TGI (MDA-MB-231 breast): 54.3 µM
- GI50 (SF-295 CNS): 3.43 µM
- TGI (SF-295 CNS): 17.2 µM
- GI50 (HOP-62 NSCLC): 4.4 µM
- TGI (HOP-62 NSCLC): 19.5 µM
- GI50 (CCRF-CEM leukemia): 0.583 µM
- TGI (CCRF-CEM leukemia): > 100 µM
- GI50 (OVCAR-5 ovarian): 2.64 µM
- TGI (OVCAR-5 ovarian): 8.19 µM
- GI50 (HS 578T breast): 4.56 µM
- TGI (HS 578T breast): > 100 µM
- GI50 (NCI-H460 lung): 3.09 µM
- TGI (NCI-H460 lung): > 100 µM
- GI50 (NCI/ADR-RES ovarian): 1.46 µM
- TGI (NCI/ADR-RES ovarian): 15.2 µM
- GI50 (SF-268 CNS): 2.95 µM
- TGI (SF-268 CNS): > 100 µM
- GI50 (CAKI-1 renal): 2.56 µM
- TGI (CAKI-1 renal): > 100 µM
- GI50 (RXF 393 renal): 1.94 µM
- TGI (RXF 393 renal): 4.21 µM
- GI50 (SN12C renal): 3.07 µM
- TGI (SN12C renal): > 100 µM
- GI50 (SW-620 colon): 0.396 µM
- TGI (SW-620 colon): 3.77 µM
- GI50 (UACC-257 melanoma): 3.55 µM
- TGI (UACC-257 melanoma): > 100 µM
- GI50 (SK-MEL-2 melanoma): 2.81 µM
- TGI (SK-MEL-2 melanoma): 7.47 µM
- GI50 (786-0 renal): 2.28 µM
- TGI (786-0 renal): 5.84 µM
- GI50 (MOLT-4 leukemia): 1.61 µM
- TGI (MOLT-4 leukemia): > 100 µM
- GI50 (DU-145 prostate): 4.25 µM
- TGI (DU-145 prostate): > 100 µM
- GI50 (MCF7 breast): 0.381 µM
- TGI (MCF7 breast): > 100 µM
- GI50 (TK-10 renal): 3.92 µM
- TGI (TK-10 renal): 14.7 µM
- GI50 (MALME-3M melanoma): 2.38 µM
- TGI (MALME-3M melanoma): 6.61 µM
- GI50 (OVCAR-8 ovarian): 2.32 µM
- TGI (OVCAR-8 ovarian): 13.1 µM
- GI50 (HL-60(TB) leukemia): 2.16 µM
- TGI (HL-60(TB) leukemia): > 100 µM
- GI50 (OVCAR-4 ovarian): 5.05 µM
- TGI (OVCAR-4 ovarian): > 100 µM
- GI50 (IGROV1 ovarian): 3.52 µM
- TGI (IGROV1 ovarian): 14.1 µM
- GI50 (K-562 leukemia): 0.377 µM
- TGI (K-562 leukemia): > 100 µM
- GI50 (A549 NSCLC): 4.39 µM
- TGI (A549 NSCLC): > 100 µM
- GI50 (NCI-H226 lung): 2.23 µM
- TGI (NCI-H226 lung): 6.32 µM
